Measured values: ChEMBL document CHEMBL1156829 (Proc Natl Acad Sci U S A, 2008)

What was measured:
Plasmodium falciparum [1] = assay: NOVARTIS: Inhibition of Plasmodium falciparum W2 (drug-resistant) proliferation in erythrocyte-based infection assay; assay type: functional, organism-based
Plasmodium falciparum [2] = assay: NOVARTIS: Inhibition of Plasmodium falciparum 3D7 (drug-susceptible) proliferation in erythrocyte-based infection assay; assay type: functional, organism-based; details: Plasmodium falciparum, 3D7
[3] = NOVARTIS: Cytotoxicity against human hepatocellular carcinoma cell line (Huh7); assay type: toxicity, cell-based, Huh-7; details: Huh7 cells (hepatocellular carcinoma cell line)
[4] = Plasmodium falciparum, W2, read-out: EC50

| Structure (SMILES) | EC50 (Plasmodium falciparum [1]; [4]) | EC50 (Plasmodium falciparum [2]) | CC50 [3] | EC50 (Plasmodium falciparum [1]) |
| --- | --- | --- | --- | --- |
| Brc1ccc(C=NNc2nc3ccccc3[nH]2)cc1 | 674 nM | 226 nM | 55800 nM | – |
| Cc1cccn2c(=O)c3cc(C(=O)NC4CCCC4)c(=N)n(CCc4ccccc4)c3nc12 | 3290 nM | 2200 nM | > 100000 nM | – |
| COC(=O)c1c(-c2c(F)cccc2Cl)noc1C=CNc1ccc(OC)cc1 | 5290 nM | 10200 nM | > 100000 nM | – |
| Cc1ccc(C)c2[nH]c(=O)c(CN(Cc3ccccc3)C(=S)NCCCN(C)C)cc12 | > 4670 nM | 5220 nM | 19500 nM | – |
| Cc1cc(Nc2cccc(F)c2)nc(NCc2ccccc2)n1 | 664 nM | 72.2 nM | 20800 nM | – |
| CC(C)NC(=O)CN(C)C1c2ccccc2CCc2ccccc21 | 254 nM | > 1380 nM | > 9180 nM | – |
| COc1cc(OC)cc(C(=O)N(CCCC(C)Nc2cc(OC)cc3cccnc23)Cc2ccc(Cl)cc2)c1 (stereo not drawn) | 348 nM | > 439 nM | 9860 nM | – |
| O=S(=O)(Oc1ccc2ccccc2c1Cc1c(OS(=O)(=O)c2ccccc2)ccc2ccccc12)c1ccccc1 | 1840 nM | > 12500 nM | > 100000 nM | – |
| O=[N+]([O-])c1ccc2nc(NC3CCCCC3)c(NC3CCCCC3)nc2c1 | 2640 nM | 2490 nM | 14700 nM | – |
| CC(NS(=O)(=O)c1ccccc1)C(c1cccs1)N1CCN(c2ccccc2F)CC1 (stereo not drawn) | 6350 nM | > 12500 nM | > 100000 nM | – |
| O=C(NCc1ccccc1)c1cnc(NCCN2CCCCC2)nc1NCCc1ccccc1 | > 1250 nM | 950 nM | > 10000 nM | – |
| CCOC(=O)C1=C(C)N=c2sc(=Cc3cccc(OCc4cccc5ccccc45)c3)c(=O)n2C1c1ccc(OC)cc1OC (stereo not drawn) | > 9270 nM | > 12500 nM | > 100000 nM | – |
| Cn1c(C(OCC(=O)N2CCN(Cc3ccccc3)CC2)c2cccnc2)cc2ccccc21 (stereo not drawn) | 1100 nM | 2250 nM | 38100 nM | – |
| O=[N+]([O-])c1cccc(Cl)c1N1CCN(S(=O)(=O)Cc2ccccc2)CC1 | 1300 nM | > 1160 nM | > 10000 nM | – |
| CCN(c1ccccc1)S(=O)(=O)c1ccc(F)c(C(=O)Nc2c(C)cccc2C)c1 | 2450 nM | > 12500 nM | > 100000 nM | – |
| COc1ccc(C2C(C(=O)NCCN(C)C)c3ccccc3C(=O)N2C2CCCCC2)cc1 (stereo not drawn) | 1610 nM | > 427 nM | > 10000 nM | – |
| Cc1oc2c(cc(NS(=O)(=O)c3ccc(F)cc3)c3ccccc32)c1C(=O)OCc1ccccc1 | > 12500 nM | > 1430 nM | > 100000 nM | – |
| COc1cccc(-c2ccc(O)c(CNCCc3cccc(F)c3)c2)n1 | 732 nM | 1090 nM | > 10000 nM | – |
| Cn1c2c([n+](C)c1CCl)C(=O)c1ccccc1C2=O | 3.55 nM | 3.1 nM | > 10000 nM | – |
| CCn1ccccc1=Nc1cccc[n+]1CC | 1170 nM | 1500 nM | > 73200 nM | – |
| COc1ccc(N(CCCNC(=O)CCl)C(=O)Nc2cccc(Cl)c2)cc1 | 1150 nM | > 1600 nM | > 10000 nM | – |
| c1ccc2cc3c(NCCN4CCOCC4)ccnc3cc2c1 | 313 nM | 310 nM | > 10000 nM | – |
| Cc1cccc(N2C(=O)C3C(C2=O)C2(c4ccccc4)C(=O)C3(c3ccccc3)C(c3ccc4c(c3)OCO4)=C2c2ccc3c(c2)OCO3)c1 (stereo not drawn) | 508 nM | 1070 nM | > 100000 nM | – |
| FC(F)(F)c1ccc(-c2nc(C34CC5CC(CC(C5)C3)C4)cs2)cc1 | 200 nM | 1570 nM | > 10000 nM | – |
| CC(Cl)=CCc1c(C)nc2c(ccc3ccccc32)c1O | 299 nM | 230 nM | > 100000 nM | – |
| CCOC(=O)C1=C(CC)NC2=C(C(=O)CCC2)C1c1ccc(OC)c(Br)c1 (stereo not drawn) | 387 nM | 1070 nM | > 83800 nM | – |

| Structure (SMILES) | EC50 (Plasmodium falciparum [1]; [4]) | EC50 (Plasmodium falciparum [2]) | CC50 [3] | EC50 (Plasmodium falciparum [1]) |
| --- | --- | --- | --- | --- |
| CCC[n+]1ccc(/C=C/c2ccc(Br)cc2)cc1 | 382 nM | 645 nM | > 10000 nM | – |
| COc1ccc2[nH]c(=O)c(CN(C(=S)Nc3ccccc3OC)C3CCCC3)cc2c1 | 824 nM | 995 nM | > 100000 nM | – |
| CCn1c2c(c(=N)c3ccccc31)CCC2 | 954 nM | 341 nM | > 100000 nM | – |
| CCOc1ccc2nc(C)cc(Nc3ccc(Br)cc3)c2c1 | 182 nM | 114 nM | 7290 nM | – |
| O=C(Nc1cc(Oc2ccc(F)cc2)cc([N+](=O)[O-])c1)c1nc2nc(-c3ccccc3)cc(C(F)(F)F)n2n1 | 3110 nM | > 12500 nM | > 100000 nM | – |
| O=C(Nc1cccc(-c2nc3ccccc3[nH]2)c1)c1cc(=O)c2ccccc2o1 | 786 nM | 397 nM | > 100000 nM | – |
| CC(=NNC(=O)/C(=C/c1ccc([N+](=O)[O-])cc1)NC(=O)c1ccccc1)c1ccccn1 | 117 nM | 1050 nM | > 10000 nM | – |
| O=C(Nc1ccc(N2CCCCC2)cc1)N1CCc2nc[nH]c2C1 | 1010 nM | > 1250 nM | > 6670 nM | – |
| COc1ccc2nc(-c3ccccc3)cc(O)c2c1 | 314 nM | 411 nM | 835 nM | – |
| CCCCCCc1cc2cc(-c3nc4ccccc4[nH]3)c(=Nc3ccccc3C)oc2cc1O | – | 2120 nM | > 100000 nM | No fit |
| COc1ccc(NC(=O)C=Cc2ccccc2Cl)cc1 | 577 nM | 972 nM | > 100000 nM | – |
| S=C(NN=CC=NNC(=S)Nc1ccccc1)Nc1ccccc1 | 288 nM | 1040 nM | 15000 nM | – |
| N=c1n(Cc2ccccc2)c2ccccc2n1CC(O)c1ccc(Cl)c(Cl)c1 (stereo not drawn) | 43.6 nM | 214 nM | 6590 nM | – |
| O=C(c1ccccc1)c1cc(Cl)ccc1NCCBr | > 955 nM | > 1250 nM | > 10000 nM | – |
| CCc1c(C)nc2cc(-c3cc(OC)cc(OC)c3)nn2c1NCCCn1ccnc1 | 185 nM | 2870 nM | > 100000 nM | – |
| Cc1ccccc1Cn1c(C)c[n+]2ccsc12 | 113 nM | 1280 nM | > 10000 nM | – |
| CC1CCN(S(=O)(=O)c2ccc(C(=O)Nc3sc4c(c3C(N)=O)CCN(C)C4)cc2)CC1 | > 665 nM | > 1250 nM | > 10000 nM | – |
| CCCN1CCC(NC(c2ccccc2)c2ccc(Cl)cc2)CC1 (stereo not drawn) | 51.9 nM | 753 nM | 20200 nM | – |
| CC(NC(=O)Cc1ccc(F)cc1)C(c1cccs1)N1CCOCC1 (stereo not drawn) | > 1250 nM | 2010 nM | > 10000 nM | – |
| CCSC1=CC(=O)c2ccccc2C1=O | 230 nM | 551 nM | 5170 nM | – |
| Cc1cc(-c2cncnc2C2CCN(C(=O)c3cc(C(C)C)n[nH]3)CC2)on1 | > 849 nM | > 1250 nM | > 10000 nM | – |
| COc1ccc(/C=C2/SC(=Nc3ccccc3OC)NC2=O)cc1 | 38.4 nM | 83.6 nM | 19800 nM | – |
| CNC(=O)NNC(=O)c1cccnc1 | > 7470 nM | > 12500 nM | > 100000 nM | – |
| CC(Cc1ccccc1)NCc1ccccc1O (stereo not drawn) | < 4.93 nM | 525 nM | > 10000 nM | – |
| COc1ccc(-c2cc(C(F)(F)F)n3ncc(C(=O)Nc4cccc(Cl)c4Cl)c3n2)cc1OC | 275 nM | 2610 nM | > 100000 nM | – |
